Values after ≈ are worked out from the molar mass of the structure shown.
Key:
Format in all cases: cell-based
[1] = system: Pseudomonas aeruginosa (Pae, PAWT, ATCC #27853); assay: MIC against Pseudomonas aeruginosa reference strain PAWT; conditions: ATCC27853; Pseudomonas aeruginosa wild type PAWT
Source text: (§1) For evaluation of efficacy, we assembled panels of representative gram-negative pathogens, including Pseudomonas aeruginosa (Pae, PAWT, ATCC #27853), Klebsiella pneumoniae (Kpn, KPWT, ATCC #700603), Acinetobacter baumannii (Aba, ABWT, ATCC #BAA-747) and Escherichia coli (Eco, ECWT, ATCC #25922). These reference strains are useful indicator organisms to characterize compound activity against bacteria from a pathogenic genus in the absence of multiple resistance mechanisms. Two strains (PAWT and ECWT) are reference strains cited within the Clinical and Laboratory Standards Institute (CLSI) Standards for susceptibility testing by Minimum Inhibitory Concentration (MIC) (SXPS2) and are well suited for quality control. ABWT and ECWT are widely susceptible to aminoglycoside antibiotics, whereas PAWT and KPWT harbor a single aminoglycoside-modifying enzyme (AGME) that targets 4,6-substituted-2-deoxystreptamine AGs. […]

[2] = system: Pseudomonas aeruginosa PR3 (high-level, efflux-mediated, pan-aminoglycoside resistance); assay: MIC against Pseudomonas aeruginosa clinical isolate PR3; conditions: Pseudomonas aeruginosa, read-out: MIC PR3
Source text: (§2) Pseudomonas aeruginosa is a prominent nosocomial pathogen. In addition to intrinsic antibiotic resistance to several antibiotics, Pseudomonas has acquired multiple additional mechanisms of resistance. As a result, therapeutic options for the treatment of infections caused by Pseudomonas aeruginosa are limited. We acquired clinical isolates of Pseudomonas aeruginosa (Micromyx LLC, Kalamazoo, Mich.), and used this panel to test compounds for Pseudomonicidal activity. […] For each strain and antibiotic, the mechanism(s) of resistance was inferred from the resistance profile. The presence of specific AGMEs was confirmed by colony PCR.

[3] = system: Pseudomonas aeruginosa PR1 (clinical isolate with intermediate aminoglycoside resistance); assay: MIC against Pseudomonas aeruginosa clinical isolate PR1; conditions: Pseudomonas aeruginosa resistant strain PR1
Source text: as §2

[4] = system: Escherichia coli (Eco, ECWT, ATCC #25922); assay: MIC against Escherichia coli reference strain ECWT; conditions: ATCC25922
Source text: For evaluation of efficacy, we assembled panels of representative gram-negative pathogens, including Pseudomonas aeruginosa (Pae, PAWT, ATCC #27853), Klebsiella pneumoniae (Kpn, KPWT, ATCC #700603), Acinetobacter baumannii (Aba, ABWT, ATCC #BAA-747) and Escherichia coli (Eco, ECWT, ATCC #25922). These reference strains are useful indicator organisms to characterize compound activity against bacteria from a pathogenic genus in the absence of multiple resistance mechanisms. Two strains (PAWT and ECWT) are reference strains cited within the Clinical and Laboratory Standards Institute (CLSI) Standards for susceptibility testing by Minimum Inhibitory Concentration (MIC) (SXPS2) and are well suited for quality control. ABWT and ECWT are widely susceptible to aminoglycoside antibiotics, whereas PAWT and KPWT harbor a single aminoglycoside-modifying enzyme (AGME) that targets 4,6-substituted-2-deoxystreptamine AGs.

[5] = system: Acinetobacter baumannii indicator strains (ABWT and clinical isolates); assay: Acinetobacter baumannii indicator strain panel, reference AGs; conditions: read-out: activity (MIC) against 3 of the 4 indicator strains
Source text: Acinetobacter baumannii is another clinically important and very challenging gram negative pathogen. Members of the Acinetobacter genus, including baumannii, have a remarkable ability to upregulate and acquire resistance determinants. Coupled with its ability to survive for prolonged periods in a hospital environment, A. baumannii is an emerging threat for healthcare institutions globally. We acquired clinical isolates of Acinetobacter baumannii and used this panel to test compounds for anti-Acinetobacter activity. We first tested reference AGs against our panel of Aba strains.

[6] = system: Klebsiella pneumoniae (Kpn, KPWT, ATCC #700603); assay: MIC against Klebsiella pneumoniae reference strain KPWT; conditions: ATCC700603; Klebsiella pneumoniae KPWT, Table 2
Source text: as §1, with “These reference strains are useful indicator organisms to characterize compound activity against bacteria from a pathogenic genus in the absence of multiple resistance mechanisms.” left out

[7] = system: Acinetobacter baumannii (Aba, ABWT, ATCC #BAA-747); assay: MIC against Acinetobacter baumannii reference strain ABWT; conditions: ATCCBAA747
Source text: as §1

[8] = system: Pseudomonas aeruginosa PR2 (clinical isolate with intermediate aminoglycoside resistance); assay: MIC against Pseudomonas aeruginosa clinical isolate PR2; conditions: Pseudomonas aeruginosa resistant strain PR2
Source text: as §2

[9] = system: Klebsiella pneumoniae screening panel KPWT, KR1, KR2, KR3; assay: Klebsiella pneumoniae screening panel (KPWT, KR1, KR2, KR3), reference AGs
Source text: Klebsiella pneumoniae (Kpn) and Escherichia coli (Eco) are gram-negative (like Pae), enteric pathogens with increasing clinical relevance. Many clinical isolates of Kpn and Eco harbor extended-spectrum beta-lactamases and are no longer sensitive to most beta-lactam antibiotics. We acquired clinical isolates of Klebsiella pneumoniae and Escherichia coli (Micromyx LLC, Kalamazoo, Mich.) and used this panel to test compounds for anti-enteric activity.

SMILES: NCC[C@H](O)C(=O)N[C@@H]1C[C@H](N)[C@@H](O[C@H]2O[C@H](CN)CC[C@H]2N)[C@H](O)[C@H]1O[C@H]1O[C@H](CO)[C@@H](O)[C@H](N)[C@H]1O [arbekacin]
- MIC [1]: 0.5 µg/mL (≈ 0.905 µM)
- MIC [2]: 16 µg/mL (≈ 29 µM)
- MIC [3]: 8 µg/mL (≈ 14.5 µM)
- MIC [4]: 1 µg/mL (≈ 1.81 µM)
- MIC [5]: ≤ 8 µg/mL
- MIC [6]: 0.25 to 0.5 µg/mL (≈ 0.452 to 0.905 µM)
- MIC [7]: 0.5 µg/mL (≈ 0.905 µM)
- MIC [8]: 8 to 16 µg/mL (≈ 14.5 to 29 µM)
- potency against Klebsiella pneumoniae test panel [9]: potency against 3 of 4 strains tested
